Marks after values point to notes of the source that are not given here.
What was measured:
Assay type in all cases: in vivo
[1] = system: cerebral ischemia model in Albino strain zebrafish; test: Ponatinib-induced cerebral ischemia model in zebrafish; settings: aspirin 50 μg/mL; for Incidence of cerebral ischemia: model control 100%
Procedure: Melanin allele mutated Albino strain zebrafish at 2 days post fertilization (2 dpf) was administered with an aqueous ponatinib solution (1 μg/mL) for 18 hours to establish a cerebral ischemia model in zebrafish. 180 melanin allele mutated Albino strain zebrafishes at 2 days post fertilization (2 dpf) were randomly selected. 30 zebrafishes were treated in each well (experiment group), and aqueous MS-SOD solutions with concentrations of 222, 667 and 2000 μg/mL were administrated respectively, the concentration of positive control drug aspirin was 50 μg/m L, and the normal control group and the model control group were set at the same time. The volume of each well was 3 mL. After MS-SOD treatment for a period of time, except for the normal control group, all the other experiment groups were simultaneously administrated with aqueous ponatinib solution to induce the cerebral ischemia model in zebrafish. After 18 hours of co-treatment with MS-SOD and ponatinib, 20 fish were randomly selected from each well and stained with o-Dianisidine. After staining, photos were taken and data were collected to count the number of zebrafish with cerebral ischemia and calculate the incidence of cerebral ischemia in zebrafish of each experiment group.

[2] = system: cerebral hemorrhage model in wild-type AB strain zebrafish; test: Blood flow volume in simvastatin-induced cerebral hemorrhage model in zebrafish; settings: icariin 30 μM; for Blood flow volume (mean ± SE): n = 10, model control 0.13, normal control 0.30 nL/s
Procedure: 3 dpf wild-type AB strain zebrafish was administered with an aqueous simvastatin solution (0.5 μM) for 18 hours to establish a cerebral hemorrhage model in zebrafish. 180 wild-type AB strain zebrafishes at 3 days post fertilization (3 dpf) were randomly selected and put in a six-well plate, 30 per well (experiment group). Aqueous MS-SOD solutions with concentrations of 222, 667 and 2000 μg/mL were administrated respectively, the concentration of positive control drug icariin was 30 μM, and the normal control group (the zebrafishes were treated with water for fish) and the model control group were set at the same time. The volume of each well was 3 mL. After treatment of zebrafishes with samples for 4 hours, except for the normal control group, the other experiment groups were treated with simvastatin for 18 hours to establish the cerebral hemorrhage model. After the treatment, 10 zebrafishes from each group were randomly selected and placed in a heart rate and blood flow analysis system to record blood flow video of zebrafish, and analyze the blood flow volume (O) of zebrafish. The statistical significance of the blood flow volume was used to evaluate the improvement effect of MS-SOD on blood flow volume of cerebral hemorrhage. The formula of the improvement effect of MS-SOD on blood flow volume of cerebral hemorrhage was as follows: [formula] Statistical analysis was performed using variance analysis and Dunnett's T-test, and p<0.05 indicated a significant difference. 4.

[3] = system: cerebral hemorrhage model in wild-type AB strain zebrafish; test: Movement velocity in simvastatin-induced cerebral hemorrhage model in zebrafish; settings: icariin 30 μM (Table 3 prints 25 μg/mL); for Movement velocity (mean ± SE): n = 10, model control 80, normal control 198 mm/s
Procedure: 5 dpf wild-type AB strain zebrafish was administered with an aqueous simvastatin solution (0.5 μM) for 18 hours to establish a cerebral hemorrhage model in zebrafish. 180 wild-type AB strain zebrafishes at 5 days post fertilization (5 dpf) were randomly selected and put in a six-well plate, 30 per well (experiment group). Aqueous MS-SOD solutions with concentrations of 222, 667 and 2000 μg/mL were administrated respectively, the concentration of positive control drug icariin was 30 μM, and the normal control group and the model control group were set at the same time. The volume of each well was 3 mL. After treatment of zebrafishes with samples for 4 hours, except for the normal control group, the other experiment groups were treated with simvastatin for 18 hours to establish the cerebral hemorrhage model. After the treatment, 10 zebrafishes from each group were randomly selected to measure the movement velocity (V) of zebrafish using a behavioral analyzer. The statistical significance of the movement velocity was used to evaluate the behavioral improvement effect of MS-SOD on cerebral hemorrhage. The formula of the behavioral improvement effect of MS-SOD on cerebral hemorrhage was as follows: [formula] Statistical analysis was performed using variance analysis and Dunnett's T-test, and p<0.05 indicated a significant difference.

[4] = system: cerebral hemorrhage model in wild-type AB strain zebrafish; test: Simvastatin-induced cerebral hemorrhage model in zebrafish (incidence); settings: icariin 30 μM; for Incidence of cerebral hemorrhage: model control 83%
Procedure: 1 dpf wild-type AB strain zebrafish was administered with an aqueous simvastatin solution (0.5 μM) for 18 hours to establish a cerebral hemorrhage model in zebrafish. 180 wild-type AB strain zebrafishes at 1 day post fertilization (1 dpf) were randomly selected and put in a six-well plate, 30 per well (experiment group). Simvastatin was used to induce a cerebral hemorrhage model in zebrafish. Aqueous MS-SOD solutions with concentrations of 222, 667 and 2000 μg/mL were administrated respectively, the concentration of positive control drug icariin was 30 μM, and the normal control group and the model control group were set at the same time. The volume of each well was 3 mL. After 18 hours of co-treatment with MS-SOD and simvastatin, 30 zebrafishes from each group were selected and observed under a microscope, photos were taken and saved. The number of zebrafish with cerebral hemorrhage was counted, and the incidence of cerebral hemorrhage in zebrafish of each experiment group was calculated.

## CC(=O)Oc1ccccc1C(=O)O [Aspirin, aspirin, reference compound]
[1]
  Improvement effect on cerebral ischemia: 65*** %
[1]; n = 20
  Number of zebrafish with cerebral ischemia: 7
  Incidence of cerebral ischemia: 35*** %
[1]; n = 20, listed as aspirin
  Incidence of cerebral ischemia: 35%
[1]; listed as aspirin
  Improvement effect on cerebral ischemia: 65%

## COc1ccc(-c2oc3c(CC=C(C)C)c(O[C@@H]4O[C@H](CO)[C@@H](O)[C@H](O)[C@H]4O)cc(O)c3c(=O)c2O[C@@H]2O[C@@H](C)[C@H](O)[C@@H](O)[C@H]2O)cc1 [Icariin, icariin, reference compound]
[2]
  Blood flow volume improvement effect: 29%
  Blood flow volume (mean ± SE): 0.18 ± 0.025 nL/s
[2]; listed as icariin
  Blood flow volume (mean ± SE): 0.18 nL/s
[3]
  Movement improvement effect: 22* %
  Movement velocity (mean ± SE): 106 ± 7 mm/s
[3]; listed as icariin
  Movement velocity (mean ± SE): 106 mm/s
  Movement improvement effect: 22%
[4]
  Improvement effect on cerebral hemorrhage: 32* %
[4]; n = 30
  Number of zebrafish with cerebral hemorrhage: 17
  Incidence of cerebral hemorrhage: 56* %
[4]; n = 30, listed as icariin
  Incidence of cerebral hemorrhage: 57%
[4]; listed as icariin
  Improvement effect on cerebral hemorrhage: 32%

Reference: patent US20220168400A1, “USE OF A MANGANESE SUPEROXIDE DISMUTASE WITH HIGH STABILITY IN THE PREVENTION OR TREATMENT OF CEREBRAL STROKE” (CARRY HEALTH BIOPHARMACEUTICALS (HANGZHOU) CO., LTD., priority 2019, published 2022)
